Experimental data published in patent US20240018128A1, “PESTICIDALLY ACTIVE HETEROCYCLIC DERIVATIVES WITH SULFUR CONTAINING SUBSTITUENTS” (SYNGENTA CROP PROTECTION AG, priority 2020, published 2024).

Legend:
Type in all cases: in vivo
[1] = system: Diabrotica balteata (corn root worm); assay: Example B1: Activity against Diabrotica balteata (corn root worm); details: 96 h, application rate 200 ppm, maize sprouts sprayed, L2 larvae, 4 days after infestation, read-out: effect in at least one of the two categories (mortality or growth inhibition)
Method: Example B1: Activity Against Diabrotica Balteata (Corn Root Worm)
Maize sprouts placed onto an agar layer in 24-well microtiter plates were treated with aqueous test solutions prepared from 10,000 ppm DMSO stock solutions by spraying. After drying, the plates were infested with L2 larvae (6 to 10 per well). The samples were assessed for mortality and growth inhibition in comparison to untreated samples 4 days after infestation.

[2] = system: Euschistus heros (neotropical brown stink bug); assay: Example B2: Activity against Euschistus heros (neotropical brown stink bug); details: 120 h, application rate 200 ppm, soybean leaves sprayed, N2 nymphs, 5 days after infestation, read-out: effect in at least one of the two categories (mortality or growth inhibition)
Method: Example B2: Activity Against Euschistus heros (Neotropical Brown Stink Bug)
Soybean leaves on agar in 24-well microtiter plates were sprayed with aqueous test solutions prepared from 10,000 ppm DMSO stock solutions. After drying the leaves were infested with N2 nymphs. The samples were assessed for mortality and growth inhibition in comparison to untreated samples 5 days after infestation.

[3] = system: Frankliniella occidentalis (western flower thrips); assay: Example B3: Activity against Frankliniella occidentalis (western flower thrips), feeding/contact activity; details: foliar, 168 h, application rate 200 ppm, sunflower leaf discs sprayed, population of mixed ages, 7 days after infestation
Method: Example B3: Activity Against Frankliniella occidentalis (Western Flower Thrips) Feeding/Contact Activity
Sunflower leaf discs were placed on agar in 24-well microtiter plates and sprayed with aqueous test solutions prepared from 10,000 DMSO stock solutions. After drying the leaf discs were infested with a Frankliniella population of mixed ages. The samples were assessed for mortality 7 days after infestation.

[4] = system: Myzus persicae (green peach aphid); assay: Example B4: Activity against Myzus persicae (green peach aphid), feeding/contact activity; details: foliar, 144 h, application rate 200 ppm, sunflower leaf discs sprayed, aphid population of mixed ages, 6 days after infestation
Method: Example B4: Activity Against Myzus persicae (Green Peach Aphid) Feeding/Contact Activity
Sunflower leaf discs were placed onto agar in a 24-well microtiter plate and sprayed with aqueous test solutions prepared from 10,000 ppm DMSO stock solutions. After drying, the leaf discs were infested with an aphid population of mixed ages. The samples were assessed for mortality 6 days after infestation.

[5] = system: Plutella xylostella (diamond back moth); assay: Example B5: Activity against Plutella xylostella (diamond back moth); details: 192 h, application rate 200 ppm, artificial diet treated by pipetting, eggs, 8 days after infestation, read-out: effect in at least one of the two categories (mortality or growth inhibition)
Method: Example B5: Activity Against Plutella xylostella (Diamond Back Moth)
24-well microtiter plates with artificial diet were treated with aqueous test solutions prepared from 10,000 ppm DMSO stock solutions by pipetting. After drying, Plutella eggs were pipetted through a plastic stencil onto a gel blotting paper and the plate was closed with it. The samples were assessed for mortality and growth inhibition in comparison to untreated samples 8 days after infestation. The following compounds gave an effect of at least 80% in at least one of the two categories (mortality or growth inhibition) at an application rate of 200 ppm: P1, P2, P4, P5, P6, P7, P9, P10, P11, P12, P13, P14, P15, P16, P17, P18.

[6] = system: Spodoptera littoralis (Egyptian cotton leaf worm); assay: Example B6: Activity against Spodoptera littoralis (Egyptian cotton leaf worm); details: foliar, 72 h, application rate 200 ppm, cotton leaf discs sprayed, L1 larvae, 3 days after infestation, read-out: control (mortality, anti-feeding effect or growth inhibition)
Method: Example B6: Activity Against Spodoptera littoralis (Egyptian Cotton Leaf Worm)
Cotton leaf discs were placed onto agar in 24-well microtiter plates and sprayed with aqueous test solutions prepared from 10,000 ppm DMSO stock solutions. After drying the leaf discs were infested with five L1 larvae. The samples were assessed for mortality, anti-feeding effect, and growth inhibition in comparison to untreated samples 3 days after infestation. Control of Spodoptera littoralis by a test sample is given when at least one of the categories mortality, anti-feedant effect, and growth inhibition is higher than the untreated sample.

[7] = system: Chilo suppressalis (striped rice stemborer); assay: Example B8: Activity against Chilo suppressalis (striped rice stemborer); details: 144 h, application rate 200 ppm, artificial diet treated by pipetting, L2 larvae, 6 days after infestation, read-out: control (mortality, anti-feeding effect or growth inhibition)
Method: Example B8: Activity Against Chilo suppressalis (Striped Rice Stemborer)
24-well microtiter plates with artificial diet were treated with aqueous test solutions prepared from 10,000 ppm DMSO stock solutions by pipetting. After drying, the plates were infested with L2 larvae (6-8 per well). The samples were assessed for mortality, anti-feeding effect, and growth inhibition in comparison to untreated samples 6 days after infestation. Control of Chilo suppressalis by a test sample is given when at least one of the categories mortality, anti-feedant effect, and growth inhibition is higher than the untreated sample.

[8] = system: Myzus persicae (green peach aphid); assay: Example B9: Activity against Myzus persicae (green peach aphid), systemic activity; details: 144 h, test rate 24 ppm, roots of infested pea seedlings placed into test solution, 6 days
Method: Example B9: Activity Against Myzus persicae (Green Peach Aphid). Systemic Activity
Roots of pea seedlings infested with an aphid population of mixed ages were placed directly into aqueous test solutions prepared from 10,000 DMSO stock solutions. The samples were assessed for mortality 6 days after placing seedlings into test solutions.

[9] = system: Bemisia tabaci (cotton white fly); assay: Example B7: Activity against Bemisia tabaci (cotton white fly), feeding/contact activity; details: foliar, 144 h, application rate 200 ppm, cotton leaf discs sprayed, adult white flies, 6 days after incubation
Method: Example B7: Activity Against Bemisia tabaci (Cotton White Fly) Feeding/Contact Activity
Cotton leaf discs were placed on agar in 24-well microtiter plates and sprayed with aqueous test solutions prepared from 10,000 ppm DMSO stock solutions. After drying the leaf discs were infested with adult white flies. The samples were checked for mortality 6 days after incubation.

CCS(=O)(=O)c1c(N2Cc3ccc(OC(F)(F)F)cc3C2=O)nc(-c2cnn(C3CC3)c2)n1C [Compound P1, 2-[2-(1-cyclopropylpyrazol-4-yl)-5-ethylsulfonyl-1-methyl-imidazol-4-yl]-6-(trifluoromethoxy)isoindolin-1-one]
≥ 80%: mortality or growth inhibition at 200 ppm [1] | percent effect (mortality or growth inhibition) at 200 ppm [2] | mortality at 200 ppm [3] | mortality at 200 ppm [4] | effect (mortality or growth inhibition) at 200 ppm [5] | control at 200 ppm [6] | control at 200 ppm [7]

CCS(=O)(=O)c1c(N2Cc3ncc(C(F)(F)F)cc3C2=O)nc(-c2cnn(CC(F)(F)F)c2)n1C [Compound P10, 6-[5-ethylsulfonyl-1-methyl-2-[1-(2,2,2-trifluoroethyl)pyrazol-4-yl]imidazol-4-yl]-3-(trifluoromethyl)-7H-pyrrolo[3,4-b]pyridin-5-one]
≥ 80%: mortality or growth inhibition at 200 ppm [1] | percent effect (mortality or growth inhibition) at 200 ppm [2] | mortality at 200 ppm [4] | effect (mortality or growth inhibition) at 200 ppm [5] | control at 200 ppm [6] | control at 200 ppm [7] | mortality at 24 ppm [8]

CCS(=O)(=O)c1c(N2Cc3ncc(C(F)(F)F)cc3C2=O)nc(-c2cnn(C(F)F)c2)n1C [Compound P13, 6-[2-[1-(difluoromethyl)pyrazol-4-yl]-5-ethylsulfonyl-1-methyl-imidazol-4-yl]-3-(trifluoromethyl)-7H-pyrrolo[3,4-b]pyridin-5-one]
≥ 80%: mortality or growth inhibition at 200 ppm [1] | percent effect (mortality or growth inhibition) at 200 ppm [2] | mortality at 200 ppm [4] | effect (mortality or growth inhibition) at 200 ppm [5] | control at 200 ppm [6] | control at 200 ppm [7] | mortality at 24 ppm [8]

CCS(=O)(=O)c1c(N2Cc3ncc(C(F)(F)F)cc3C2=O)nc(C2CC2)n1C [Compound P17, 6-(2-cyclopropyl-5-ethylsulfonyl-1-methyl-imidazol-4-yl)-3-(trifluoromethyl)-7H-pyrrolo[3,4-b]pyridin-5-one]
≥ 80%: mortality or growth inhibition at 200 ppm [1] | mortality at 200 ppm [4] | effect (mortality or growth inhibition) at 200 ppm [5] | control at 200 ppm [6] | mortality at 200 ppm [9] | control at 200 ppm [7] | mortality at 24 ppm [8]
